# Measurements as given in patent US9278962B2 (Cytokinetics, Inc., priority 2011, dated 2016).
# Test system: rabbit skeletal myofibrils (approximately 90% fast fibers)
# Experiment: Activation of fast skeletal myofibrils (PUMA coupled-enzyme ATPase assay, AC1.4)
# Type: biochemical
# Conditions: concentration at which the compound increased enzymatic activity by 40%, calcium at pCa25
# Method: Rabbit skeletal myofibrils were prepared based upon the method of Herrmann et al. (Biochem. 32(28):7255-7263(1993). Myofibrils were prepared from rabbit psoas muscle purchased from Pel-Freez Biologicals (Arkansas) within 2 days of ordering, stored on ice. Minced muscle was homogenized in 10 volumes of ice-cold “standard” buffer (50 mM Tris, pH 7.4, 0.1 M potassium acetate, 5 mM KCl, 2 mM DTT, 0.2 mM PMSF, 10 μM leupeptin, 5 μM pepstatin, and 0.5 mM sodium azide) containing 5 mM EDTA and 0.5% Triton X-100 using an Omni-Macro homogenizer. Myofibrils were recovered by low speed centrifugation (3000 rpm for 10 minutes) and washed 2 times in the Triton X-100 containing buffer to ensure removal of cellular membrane. Following the Triton washes, myofibrils were washed 3 times in “standard” buffer containing 2 mM magnesium acetate. A final wash in assay buffer (12 mM PIPES, pH 6.8, 60 mM KCl, 1 mM DTT) was performed and brought to 10% sucrose for flash freezing in liquid nitrogen and storage at −80° C.
# Fast fiber activators were identified by measuring the enzymatic activity of muscle myofibril preparations using the proprietary PUMA™ (see, e.g., U.S. Pat. Nos. 6,410,254, 6,743,599, 7,202,051, and 7,378,254) assay system. Myofibril preparations consisted of rabbit skeletal muscle (approximately 90% fast fibers) that had been mechanically homogenized and washed with a detergent (triton X-100) to remove cellular membranes. This preparation retained all of the sarcomeric components in a native conformation and the enzymatic activity was still regulated by calcium. Compounds were tested using a myofibril suspension and a level of calcium sufficient to increase enzymatic activity of the myofibrils to 25% of their maximal rate (termed pCa25). Enzymatic activity was tracked via a pyruvate kinase and lactate dehydrogenase-coupled enzyme system. This assay regenerates myosin-produced ADP into ATP by oxidizing NADH, producing an absorbance change at 340 nm. The buffering system was 12 mM Pipes, 2 mM MgCl2, 1 mM DTT at pH 6.8 (PM12 buffer).
# Using procedures similar to those described herein, utilizing reagents and intermediates commercially available (e.g., Sigma-Aldrich) or readily synthesized by one of skill in the art, the compounds in Table 2, Table 3, Table 4 and Table 5 were synthesized, characterized and tested. AC1.4 values were determined according to the procedure described in Example 6, and the reported median AC1.4 values are as follows: A=<1 uM; B=1-10 uM; C=10-20 uM; D=>20 uM.
Structure (SMILES),Mean AC1.4 (Table 3),Mean AC1.4 (Table 2)
"NC(=O)c1cccc(-c2nnc(NC[C@]3(c4ncccc4F)C[C@H](F)C3)s2)c1 [3-(5-(((trans)-3-fluoro-1-(3-fluoropyridin-2-yl)cyclobutyl)methylamino)-1,3,4-thiadiazol-2-yl)benzamide]",B (B=1-10 uM),–
"CC(Nc1nc(-c2cccc(C(N)=O)c2)ns1)C(=O)c1ccc(F)cc1 (stereo not shown) [3-(5-{[2-(4-fluorophenyl)-1-methyl-2-oxoethyl]amino}-1,2,4-thiadiazol-3-yl)benzamide]",–,C (C=10-20 uM)
"NC(=O)c1cccc(-c2nsc(NCC(O)c3ccc(F)cc3)n2)c1 (stereo not shown) [3-(5-{[2-(4-fluorophenyl)-2-hydroxyethyl]amino}-1,2,4-thiadiazol-3-yl)benzamide]",–,D (D=>20 uM)
"CC(C)(CNc1nc(CCC(=O)N2CCCC(O)C2)ns1)c1ccc(F)cc1 (stereo not shown) [3-(5-{[2-(4-fluorophenyl)-2-methylpropyl]amino}(1,2,4-thiadiazol-3-yl))-1-(3-hydroxypiperidyl)propan-1-one]",–,D (D=>20 uM)
"CC(C)(CNc1nc(CCC(=O)N2CCC(O)CC2)ns1)c1ccc(F)cc1 [3-(5-{[2-(4-fluorophenyl)-2-methylpropyl]amino}(1,2,4-thiadiazol-3-yl))-1-(4-hydroxypiperidyl)propan-1-one]",–,D (D=>20 uM)
"CC(C)(CNc1nc(CCC(=O)N2CCCC2)ns1)c1ccc(F)cc1 [3-(5-{[2-(4-fluorophenyl)-2-methylpropyl]amino}(1,2,4-thiadiazol-3-yl))-1-pyrrolidinylpropan-1-one]",–,C (C=10-20 uM)
"CC(C)(CNc1nc(CCC(=O)NCCO)ns1)c1ccc(F)cc1 [3-(5-{[2-(4-fluorophenyl)-2-methylpropyl]amino}(1,2,4-thiadiazol-3-yl))-N-(2-hydroxyethyl)propanamide]",–,C (C=10-20 uM)
"CC(C)(CNc1nc(-c2cccc(C(N)=O)c2)ns1)c1ccc(F)cc1 [3-(5-{[2-(4-fluorophenyl)-2-methylpropyl]amino}-1,2,4-thiadiazol-3-yl)benzamide]",–,A (A=<1 uM)
"CC(C)(CNc1nc(-c2cccc(C#N)c2)ns1)c1ccc(F)cc1 [3-(5-{[2-(4-fluorophenyl)-2-methylpropyl]amino}-1,2,4-thiadiazol-3-yl)benzenecarbonitrile]",–,B (B=1-10 uM)
"CC(C)(CNc1nc(-c2cccc(O)c2)ns1)c1ccc(F)cc1 [3-(5-{[2-(4-fluorophenyl)-2-methylpropyl]amino}-1,2,4-thiadiazol-3-yl)phenol]",–,A (A=<1 uM)
"CC(C)(CNc1nc(CCC(N)=O)ns1)c1ccc(F)cc1 [3-(5-{[2-(4-fluorophenyl)-2-methylpropyl]amino}-1,2,4-thiadiazol-3-yl)propanamide]",–,C (C=10-20 uM)
"CC(C)(CNc1nc(CC(O)CO)ns1)c1ccc(F)cc1 (stereo not shown) [3-(5-{[2-(4-fluorophenyl)-2-methylpropyl]amino}-1,2,4-thiadiazol-3-yl)propane-1,2-diol]",–,B (B=1-10 uM)
"CC(C)(CNc1nc(CCC(=O)O)ns1)c1ccc(F)cc1 [3-(5-{[2-(4-fluorophenyl)-2-methylpropyl]amino}-1,2,4-thiadiazol-3-yl)propanoic acid]",–,D (D=>20 uM)
"NC(=O)c1cccc(-c2nsc(NCCc3ccc(F)cc3)n2)c1 [3-(5-{[2-(4-fluorophenyl)ethyl]amino}-1,2,4-thiadiazol-3-yl)benzamide]",–,B (B=1-10 uM)
"N#Cc1cccc(-c2nsc(NCCc3ccc(F)cc3)n2)c1 [3-(5-{[2-(4-fluorophenyl)ethyl]amino}-1,2,4-thiadiazol-3-yl)benzenecarbonitrile]",–,D (D=>20 uM)
"CN1CCN(C(=O)CNc2nc(-c3cccc(C(N)=O)c3)ns2)CC1 [3-(5-{[2-(4-methylpiperazinyl)-2-oxoethyl]amino}-1,2,4-thiadiazol-3-yl)benzamide]",–,D (D=>20 uM)
